These results are taken from US11529397B2, “Method of treating mucopolysaccharidosis type IVA” (Saint Louis University, priority 2018, dated 2022).

Experiment [1] relates to splenocytes. Briefly: Secreted cytokine profile of splenocytes, retest in MKC mice (Example 7). The settings on record: for IL-5 secretion, ERT treated vs PBS controls, p or significance / IL-13 secretion, ERT treated vs PBS controls, p or significance / profile of secreted cytokines, ERT treated vs PBS treated mice: MKC mice; for profile of secreted cytokines, ERT treated vs PBS treated mice: 16 i.v. infusions. Format: cell-based, mouse. On the procedure:
The predicted peptides from Example 1 were reevaluated in MKC mice to reaffirm the selection of peptides 4, 8, and 10. […] A control group received PBS. […] The suspension was centrifuged at 1,000 rpm during 10 minutes. […] The specificity of cellular response against the peptides or the complete enzyme in the in vitro stimulation was determined by splenocyte proliferation or cytokine secretion in ERT treated mice or PBS injected control mice.
Cytokines were determined in the cell culture supernatants. […] Cells were centrifuged at 1,000 rpm during 10 min. Secreted cytokines (IL-4, IL-5, IL-13, and IFN-γ) in the collected supernatants were detected by a bead immunoassay kit which allow the measurement of multiple proteins simultaneously (LUMINEX xMAP Technology, using a Millipore Milliplex™ kit) according to manufacturer's instructions (FIG. 5).

The test system of experiment [2] is splenocytes. Nature of the experiment: Secreted cytokines of splenocytes in Morquio A mouse models and WT mice treated by ERT (Examples 10-13). The settings on record: for IL-4 secretion / IL-5 secretion: MTol mice. In kind it is cell-based. The protocol: (§1) Morquio A mouse models: a). […] 14(22): p. 3321-35).c). Missense mutation mice (Galnstm (C76S) SLU C2) (Tomatsu et al. (2007) Mol Genet Metab., 91(3): p. 251-8), and wild-type C57BL6 mice were treated by ERT. […] A control group received PBS.
(§2) The suspension was centrifuged at 1,000 rpm during 10 minutes.
Cytokines were determined in the cell culture supernatants. […] Cells were centrifuged at 1000 rpm during 10 min. Secreted cytokines (IL-4, IL-5, IL-13, and IFN-γ) in the collected supernatants were detected by a bead immunoassay kit which allow the measurement of multiple proteins simultaneously (LUMINEX xMAP Technology, using a Millipore Milliplex™ kit) according to manufacturer's instructions.

Experiment [3] concerns splenocytes. Briefly: Splenocytes proliferation in Morquio A mouse models and WT mice treated by ERT (Example 9). Format: cell-based. On the procedure:
as §1, §2
Thymidine incorporation was measured by β-Scintillation counter (Trilux Microbeta Counter) Mirano-Bascos, et al. (2010) J Virol. 84(7): p. 3303-11).

The subject of experiment [4] is splenocytes. Briefly: Cytokine production by splenocytes after in vitro stimulation (Example 3). In kind it is cell-based, mouse. The settings on record: splenocytes of MKC mice treated by ERT with GALNS; culture supernatant. On the procedure: (§3) Mice (MKC) genetically engineered not to express GALNS were used in these examples. […] 200 μl of the emulsion were administered as a subcutaneous injection. […] Control mice (n=2) were immunized with PBS emulsified in CFA and IFA respectively (Chung et al. (2005) J. Leukoc Biol. 77(6):906-13)). […] A control group (n=5) received PBS (Tomatsu et al. (2008) Hum Mol Genet. 15; 17(6):815-24). […]
The production of cytokines after peptide stimulation was evaluated as intracellular staining (by flow cytometry) and secreted cytokines (by LUMINEX). […] The cells were treated with 1 μl of a protein transport inhibitor BD GolgiPlug™ during 5 h at 37° C., saturated humidity and 5% CO2. The suspension of cells was centrifuged at 1000 rpm during 10 minutes. The supernatants were collected by further analysis with LUMINEX. The Fc receptors were blocked with 1 μl of α-mouse CD16/32 (e-Bioscience) during 15 min at 4° C. After washing, the cells were stained with PE-Cy7-labeled anti-mouse CD4 and Alexa700-labeled anti-mouse CD8 antibodies during 30 min at 4° C. After two washes, cells were permeabilized with a BD fixation/permeabilization solution during 20 min at 4° C. Cells were washed two times and stained with a cocktail of antibodies for intracellular staining (PE-labeled anti-mouse IL-4, APC-labeled anti-mouse IL-5 and FITC-labeled anti-mouse IFN-γ). After two washes, cells were analyzed by flow cytometry. Secreted cytokines (IL-4, IL-5, IL-13, IL-17 and IFN-γ) in the collected supernatants were detected by using a bead immunoassay kit which allows the measurement of multiple proteins simultaneously (LUMINEX technology, using a Millipore Milliplex™ kit).

In experiment [5] the test system is splenocytes. Nature of the experiment: Splenocyte proliferation after in vitro stimulation with peptides or GALNS (Examples 2, 4). The settings on record: for proliferation of splenocytes relative to age of the animal and length of treatment: MKC mice, weeks of infusion; for splenocyte proliferation response: splenocytes of MKC mice treated by ERT with GALNS, in vitro peptide stimulation. Format: cell-based, mouse. The protocol: as §3
Ten days after the last immunization or the last infusion, the mice were euthanized and the spleen was aseptically removed. […] The suspension was centrifuged at 1000 rpm […]. The red blood cells were lysed using a hypotonic lysis buffer (Sigma® R7757). […] Cells were pulsed with 1 JpCi of [3H]thymidine for the last 18 h of incubation. [3H]thymidine incorporation was measured by […] (Trilux Microbeta Counter). The Stimulation Index (SI) was calculated as the mean value of the three wells for each condition divided by the mean value of the unstimulated cells (Mirano-Bascos (2010) J Virol. 84(7):3303-11).

Experiment [6] concerns splenocytes. Nature of the experiment: Screening of peptides by splenocytes proliferation, retest in MKC mice (Examples 5-6). Format: cell-based, mouse. Particulars: MKC mice, 16, 22 and 24 infusions; with higher number of infusions. The protocol: of body weight through the tail vein. A control group received PBS. […] The suspension was centrifuged at 1,000 rpm during 10 minutes. […] The specificity of cellular response against the peptides or the complete enzyme in the in vitro stimulation was determined by splenocyte proliferation or cytokine secretion in ERT treated mice or PBS injected control mice. […] 3H-Thymidine incorporation was measured by β-Scintillation counter (Trilux Microbeta Counter). Proliferation data are expressed as counts per minute (cpm) values (FIG. 5). (Mirano-Bascos et al. (2010) J Virol. 84(7): p. 3303-11).

In the case of “FFLYWAVDATHAPVYASKPF (listed as Homo sapiens) [Peptide E8]”, in the experiment on splenocytes [1], the “IL-5 secretion, ERT treated vs PBS controls, p or significance” value is listed as “did not induce a significant IL-5 response”; the “IL-13 secretion, ERT treated vs PBS controls, p or significance” value is listed as “not statistically significant”; the “profile of secreted cytokines, ERT treated vs PBS treated mice” value is recorded as “statistically significant difference”. In addition, in the experiment on splenocytes [2], the “IFN-γ secretion, MKC vs MTol mice treated by ERT, p or significance” value is listed as “not statistically significant”; the IL-4 secretion result is recorded as “did not present secretion of IL-4”; the IL-5 secretion entry is given as “did not present secretion of IL-5”. Further, the “IFN-γ secretion, ERT treated vs PBS controls of the same strain” value in the experiment on splenocytes [2] (all mice (MKC, C2, WT, MTol)) is on record as “statistically significant levels”. Further, the “IL-5 secretion, ERT treated vs PBS controls” value in the experiment on splenocytes [2] (any of the mice models) is “did not induce IL-5 secretion”. Further, the “splenocytes proliferation, ERT treated vs PBS controls” value in the experiment on splenocytes [3] (C2 mice) is given as “statistically significant difference”. Moreover, the “splenocytes proliferation, ERT treated vs PBS controls” value with splenocytes [3] (MKC mice) is “statistically significant”. For the same sequence, the “splenocytes proliferation, ERT treated vs PBS controls” value with splenocytes [3] (WT mice) was “statistically significant difference”. Moreover, the “secretion of cytokines IL-5 and IFN-γ” value in the experiment with splenocytes [4] was “strong response”. Also, in the experiment with splenocytes [5], the “proliferation of splenocytes relative to age of the animal and length of treatment” value is given as “highest response at 16 weeks”; the splenocyte proliferation response entry is “strong response”. Also, the “relationship between number of weekly i.v. infusions and cpm values of splenocytes proliferation” value with splenocytes [6] is “lower levels of proliferation”.

As to “PNCHFGPYDNKARPNIPVYR (listed as Homo sapiens) [Peptide C4]”, in the experiment with splenocytes [1], the “IL-5 secretion, ERT treated vs PBS controls, p or significance” value is listed as 0.028; the “IL-13 secretion, ERT treated vs PBS controls, p or significance” value is on record as “not statistically significant”; the “profile of secreted cytokines, ERT treated vs PBS treated mice” value is on record as “statistically significant difference”. Besides, the “levels of secreted IFN-γ among the peptides and GALNS” value with splenocytes [1] (MKC mice treated by ERT) is on record as “highest levels”. Also, in the experiment with splenocytes [2], the IL-4 secretion result is “did not present secretion of IL-4” and the IL-5 secretion entry is “did not present secretion of IL-5”. The “IFN-γ secretion compared with the other stimuli” value with splenocytes [2] (mice treated by ERT) is listed as “strongest response”. In the experiment with splenocytes [3] (C2 mice), the “splenocytes proliferation, ERT treated vs PBS controls” value is “statistically significant difference”. The “splenocytes proliferation, ERT treated vs PBS controls” value in the experiment on splenocytes [3] (MKC mice) is given as “statistically significant”. In the experiment on splenocytes [3] (WT mice), the “splenocytes proliferation, ERT treated vs PBS controls” value was “statistically significant difference”. The “secretion of cytokines IL-5 and IFN-γ” value in the experiment with splenocytes [4] was “strong response”. Moreover, in the experiment with splenocytes [5], the “proliferation of splenocytes relative to age of the animal and length of treatment” value is listed as “highest response at 16 weeks”; the splenocyte proliferation response entry was “strong response”. The “relationship between number of weekly i.v. infusions and cpm values of splenocytes proliferation” value in the experiment on splenocytes [6] is listed as “lower levels of proliferation”.
